For assay [1], the target named is T1, human TLR7 (Homo sapiens, UniProt Q9NYK1).
T1 construct: expresses full-length human TLR7 and secretory alkaline phosphatase (SEAP) reporter gene; host or cells: HEK293 (TLR7/NF-κB/SEAPorter)
T1 sequence (Q9NYK1 27-1049): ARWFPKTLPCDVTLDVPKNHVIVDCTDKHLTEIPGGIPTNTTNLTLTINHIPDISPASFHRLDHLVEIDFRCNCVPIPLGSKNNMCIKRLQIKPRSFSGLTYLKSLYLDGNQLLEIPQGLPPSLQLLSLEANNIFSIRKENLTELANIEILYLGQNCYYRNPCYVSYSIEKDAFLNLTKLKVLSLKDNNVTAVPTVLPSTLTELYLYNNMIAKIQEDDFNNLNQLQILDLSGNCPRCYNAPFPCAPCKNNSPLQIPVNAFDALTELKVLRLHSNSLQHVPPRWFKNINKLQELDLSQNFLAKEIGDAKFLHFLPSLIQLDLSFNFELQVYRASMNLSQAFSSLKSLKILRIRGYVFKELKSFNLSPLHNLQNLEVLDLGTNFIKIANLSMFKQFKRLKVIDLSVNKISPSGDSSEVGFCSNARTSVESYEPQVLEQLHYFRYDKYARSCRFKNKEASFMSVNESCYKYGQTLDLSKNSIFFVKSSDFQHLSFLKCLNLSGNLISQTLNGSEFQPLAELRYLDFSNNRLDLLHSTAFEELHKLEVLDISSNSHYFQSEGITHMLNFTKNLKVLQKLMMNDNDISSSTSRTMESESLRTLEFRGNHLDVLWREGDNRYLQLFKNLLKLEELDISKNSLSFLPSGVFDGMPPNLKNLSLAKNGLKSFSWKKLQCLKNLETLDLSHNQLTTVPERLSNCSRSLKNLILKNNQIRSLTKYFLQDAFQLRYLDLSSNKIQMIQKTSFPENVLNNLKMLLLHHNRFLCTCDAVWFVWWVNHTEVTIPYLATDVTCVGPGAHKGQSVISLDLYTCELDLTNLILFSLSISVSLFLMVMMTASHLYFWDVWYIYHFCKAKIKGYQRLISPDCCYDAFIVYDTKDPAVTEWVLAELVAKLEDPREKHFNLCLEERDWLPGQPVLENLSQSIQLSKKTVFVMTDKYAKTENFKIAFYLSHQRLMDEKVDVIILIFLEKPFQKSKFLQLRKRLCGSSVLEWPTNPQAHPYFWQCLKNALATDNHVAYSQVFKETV
The assay can be described thus: Human TLR7 reporter gene assay (TLR7/NF-κB/SEAPorter HEK293 cell line), Tests 1 and 21. Conditions: Test 1; TLR7/NF-κB/SEAPorter HEK293 cell line; half of maximal SEAP induction; 24-hour incubation, 0.1% DMSO; read-out: EC50. The class given is cell-based. The source says:
Human TLR7 Reporter Gene Assay
TLR7/NF-κB/SEAPorter™ HEK293 cell line (Imgenex Corporation) is a stably co-transfected cell line which expresses full-length human TLR7 and secretory alkaline phosphatase (SEAP) reporter gene under the transcriptional regulation of an NF-κB response element. The TLR7 expression of the cell line has been already tested by flow cytometry. Transfectants with stable expression were selected using the antibiotic blasticidin and Geneticin. TLR signaling leads to the translocation of NF-κB and the activation of the promoter results in expression of the SEAP gene. TLR7-specific activation was assessed by determining the level of SEAP produced following 24-hour incubation of the cells at 37° C. with each compound prepared in Examples and Reference examples in the presence of 0.1% (v/v) dimethylsulfoxide (DMSO). The human TLR7 activity for the present compound was assessed by human TLR7 reporter gene assay, and the results are shown in Tables 3 and 4 as the compound concentration which produced half of the maximal level of SEAP induction (EC50)
According to the method of Test 1, human TLR7 reporter gene assay was done with the following samples, and the result was shown in the table below.

In assay [2] the test system is HLA-A*24:02 transgenic mouse. The assay can be described thus: Test 20: in vivo adjuvant activity, vaccine o (Compound of formula 5), IFNγ ELISPOT. Conditions: added to vaccine o; 0.4 nmol per body, twice; FIG. 25. As to the method: Evaluation of In Vivo Adjuvant Activity in HLA-A*24:02 Transgenic Mouse
The in vivo adjuvant activity of the compound of Example 1 was evaluated in the following procedure. To a vaccine prepared by mixing Compound of formula 5 prepared in Reference example 22 with a preliminarily-emulsified composition (hereinafter, referred to as “vaccine o”) was added the compound prepared in Example 1 to prepare a vaccine. The vaccine was administered to a HLA-A*24:02 transgenic mouse, and the adjuvant activity of the vaccine was evaluated by the method of testing antigen-specific CTL induction.
Specifically, Compound of formula 5 was dissolved in DMSO, and then diluted with water for injection to concentrations of Compound of formula 5 of 3 mg/mL. The prepared compound dilution was mixed with an equal volume of the preliminary emulsified composition prepared like Test 4 to give an emulsified product, vaccine o. Vaccine o was injected to mice intradermally at the tail base area in an amount for administering 300 μg of Compound of formula 5 per body. […] Then, after removal of the supernatant from the wells, stained spots on the ELISPOT plate were counted.

We go through two compounds from patent US12427192B2, “Water soluble adjuvant and composition containing same” (Sumitomo Pharma Co., Ltd., priority 2019, dated 2025).

Regarding `CCCCCNc1nc(N)nc(C)c1Cc1ccc(CN(C)CCOCCOCCOCCOCCO)cc1OC` [Example 1, 1-(4-{[2-amino-4-methyl-6-(pentylamino)pyrimidin-5-yl]methyl}-3-methoxyphenyl)-2-methyl-5,8,11,14-tetraoxa-2-azahexadecan-16-ol·trifluoroacetate], the half-maximal effective concentration (EC50) in assay [1] is 68 nM. In addition, in assay [2], the “CTL counts responsive to Peptide SEQ ID No. 2 compared with adding no compound” value is given as “more”.

Take `CCCCCNc1nc(N)nc(C)c1Cc1ccc(CNC)cc1OC` [Reference example 12, 5-({2-methoxy-4-[(methylamino)methyl]phenyl}methyl)-6-methyl-N^4-pentylpyrimidine-2,4-diamine, reference compound]: in assay [1], the EC50 came to 50 nM.
